According to patent publication US11648254B2 (Kumquat Biosciences Inc., priority 2021, dated 2023):
Like-named read-outs stand apart in the source and are kept apart here.

Target: SOS1 (Homo sapiens (Human), UniProt Q07889)
Test: Ras-SOS interaction assay (HTRF)
Format: biochemical
From the text: The ability of any compound of the present disclosure to reduce a Ras protein signaling output by, e.g., interfering or disrupting interaction (or binding) between SOS1 and a Ras protein can be assessed in vitro. For example, the equilibrium interaction of human SOS1 (hSOS1) with human wildtype Kras or K-Ras mutant (e.g., hK-Ras G12C mutant, or hK-RasG12C) can be assessed as a proxy or an indication for a subject compound's ability to inhibit SOS. Detection of such interaction is achieved by measuring homogenous time-resolved fluorescence resonance energy transfer (HTRF) from (i) a fluorescence resonance energy transfer (FRET) donor (e.g., antiGST-Europium) that is bound to GST-tagged K-RasG12C to (ii) a FRET acceptor (e.g., anti-6His-XL665) bound to a His-tagged hSOS1.
The assay buffer can contain 5 mM HEPES pH 7.4, 150 mM NaCl, 10 mM EDTA, 1 mM DTT, 0.05% BSA, 0.0025% (v/v) Igepal and 100 mM KF. A Ras working solution is prepared in assay buffer containing typically 10 nM of the protein construct (e.g., GST-tagged hK-RasG12C) and 2 nM of the FRET donor (e.g., antiGST-Eu(K) from Cisbio, France). A SOS1 working solution is prepared in assay buffer containing typically 10 nM of the protein construct (e.g., His-hSOS1) and 10 nM of the FRET acceptor (e.g., anti-6His-XL665 from Cisbio, France). An inhibitor control solution is prepared in assay buffer containing 10 nM of the FRET acceptor without the SOS1 protein.
A fixed reaction mixture with or without test compound is transferred into a 384-well plate. Ras working solution is added to all wells of the test plate. SOS1 working solution is added to all wells except for those that are subsequently filled the inhibitor control solution. After approximately 60 min incubation, the fluorescence is measured with a M1000Pro plate reader (Tecan) using HTRF detection (excitation 337 nm, emission 1: 620 nm, emission 2: 665 nm). Compounds are tested in duplicates at different concentrations (for example, 10 μM, 2.5 μM, 0.63 μM, 0.16 μM, 0.04 μM, 0.01 μM test compound). The ratiometric data (i.e., emission 2 divided by emission 1) is used to calculate IC50 values against SOS1 using GraphPad Prism (GraphPad software).

[1] = K-RasG13D utilized, read-out: IC50 inhibition of SOS
[2] = K-RasG13D, read-out: IC50 value against SOS1

Chain of SOS1 (Q07889 564-1049): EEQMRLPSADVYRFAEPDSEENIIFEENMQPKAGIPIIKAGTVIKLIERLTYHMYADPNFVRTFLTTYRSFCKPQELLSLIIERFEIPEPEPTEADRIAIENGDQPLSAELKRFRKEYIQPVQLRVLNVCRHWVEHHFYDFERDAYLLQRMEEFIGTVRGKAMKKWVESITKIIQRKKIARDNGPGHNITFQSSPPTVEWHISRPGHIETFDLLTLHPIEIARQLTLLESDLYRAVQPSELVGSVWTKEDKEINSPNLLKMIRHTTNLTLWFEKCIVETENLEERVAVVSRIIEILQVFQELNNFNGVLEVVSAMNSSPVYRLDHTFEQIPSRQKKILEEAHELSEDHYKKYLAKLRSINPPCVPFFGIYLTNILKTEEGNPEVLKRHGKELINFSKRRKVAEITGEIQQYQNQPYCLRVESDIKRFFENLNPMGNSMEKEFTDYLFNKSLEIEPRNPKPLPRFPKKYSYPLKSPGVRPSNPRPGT

Compound | IC50 [1] [nM] | IC50 [2] [nM]
Cc1nc(N[C@H](C)c2cccc(C(F)F)c2F)c2cc(C3(C#N)CC3)c(OC3CCOCC3)nc2n1 [Compound 403, (R)-1-(4-((1-(3-(difluoromethyl)-2-fluorophenyl)ethyl)amino)-2-methyl-7-((tetrahydro-2H-pyran-4-yl)oxy)pyrido [2,3-d]pyrimidin-6-yl)cyclopropane-1-carbonitrile] | 100 to 1000 | 
COc1nc2nc(C)nc(N[C@H](C)c3cccc(C(F)(F)F)c3F)c2cc1C1(C#N)CCN(C(C)C)CC1 [Compound 306, (R)-4-(4-((1-(2-fluoro-3-(trifluoromethyl)phenyl)ethyl)amino)-7-methoxy-2-methylpyrido[2,3-d]pyrimidin-6-yl)-1-isopropylpiperidine-4-carbonitrile] | 100 to 1000 | 
COc1nc2nc(C)nc(N[C@H](C)c3cccc(C(F)F)c3F)c2cc1S(=O)(=O)N1CCN(C)CC1 [Compound 106, (R)—N-(1-(3-(difluoromethyl)-2-fluorophenyl)ethyl)-7-methoxy-2-methyl-6-((4-methylpiperazin-1-yl)sulfonyl)pyrido[2,3-d]pyrimidin-4-amine] | < 100 | 
Cc1nc(N[C@H](C)c2cccc(C(F)F)c2F)c2cc(C3(C#N)CC3)c(NCC(C)(C)O)nc2n1 [Compound 319, (R)-1-(4-((1-(3-(difluoromethyl)-2-fluorophenyl)ethyl)amino)-7-((2-hydroxy-2-methylpropyl)amino)-2-methylpyrido[2,3-d]pyrimidin-6-yl) cyclopropane-1-carbonitrile] | 100 to 1000 | 
COc1nc2nc(CCN3CCC3)nc(N[C@H](C)c3cccc(C(C)(F)F)c3F)c2cc1C1(C#N)CC1 [Compound 425, (R)-1-(2-(2-(azetidin-1-yl)ethyl)-4-((1-(3-(1,1-difluoroethyl)-2-fluorophenyl)ethyl)amino)-7-methoxypyrido[2,3-d]pyrimidin-6-yl)cyclopropane-1-carbonitrile] | < 100 | < 50
COc1nc2ncnc(N[C@H](C)c3cccc(C(F)(F)CO)c3F)c2cc1N1CCS(=O)(=O)CC1 [Compound 279, (R)-4-(4-((1-(3-(1,1-difluoro-2-hydroxyethyl)-2-fluorophenyl)ethyl)amino)-7-methoxypyrido[2,3-d]pyrimidin-6-yl)thiomorpholine 1,1-dioxide] | 100 to 1000 | 
COc1nc2nc(OCC3CN(C(C)C)C3)nc(N[C@H](C)c3cccc(C(F)(F)F)c3F)c2cc1C1CCS(=O)(=O)CC1 [Compound 286, (R)-4-(4-((1-(2-fluoro-3-(trifluoromethyl)phenyl)ethyl)amino)-2-((1-isopropylazetidin-3-yl)methoxy)-7-methoxypyrido[2,3-d]pyrimidin-6-yl)tetrahydro-2H-thiopyran 1,1-dioxide] | 100 to 1000 | 
Cc1nc(N[C@H](C)c2cccc(C(F)F)c2F)c2cc(C3CCN(C)CC3)c(OC3COC3)nc2n1 [Compound 246, (R)-N-(1-(3-(difluoromethyl)-2-fluorophenyl)ethyl)-2-methyl-6-(1-methylpiperidin-4-yl)-7-(oxetan-3-yloxy)pyrido[2,3-d]pyrimidin-4-amine] | < 100 | < 50
COc1nc2nc(N3CCC3)nc(N[C@H](C)c3cccc(C(F)F)c3F)c2cc1N1CCN(C(C)C)CC1 [Compound 168, (R)-2-(azetidin-1-yl)-N-(1-(3-(difluoromethyl)-2-fluorophenyl)ethyl)-6-(4-isopropylpiperazin-1-yl)-7-methoxypyrido[2,3-d]pyrimidin-4-amine] | 100 to 1000 | 
Cc1nc(N[C@H](C)c2cccc3c2OC(C)(C)C3(F)F)c2cc(N3CCN(C(C)C)CC3)c(OCC3COC3)nc2n1 [Compound 274, (R)—N-(1-(3,3-difluoro-2,2-dimethyl-2,3-dihydrobenzofuran-7-yl)ethyl)-6-(4-isopropylpiperazin-1-yl)-2-methyl-7-(oxetan-3-ylmethoxy)pyrido[2,3-d]pyrimidin-4-amine] | 100 to 1000 | 
Cc1nc(N[C@H](C)c2cccc(C(F)F)c2F)c2cc(N3CCN(C(C)C)CC3)nnc2n1 [Compound 108, (R)—N-(1-(3-(difluoromethyl)-2-fluorophenyl)ethyl)-3-(4-isopropylpiperazin-1-yl)-7-methylpyrimido[4,5-c]pyridazin-5-amine] | < 100 | 
COc1nc2nc(C)nc(N[C@H](C)c3cccc(C(F)F)c3F)c2cc1C1CCN(C(=O)NC2CNC2)CC1 [Compound 122, (R)-N-(azetidin-3-yl)-4-(4-((1-(3-(difluoromethyl)-2-fluorophenyl)ethyl)amino)-7-methoxy-2-methylpyrido[2,3-d]pyrimidin-6-yl)piperidine-1-carboxamide] | < 100 | < 50
Cc1nc(N[C@H](C)c2cccc(C(F)F)c2F)c2cc(N3CCN(C)CC3)c(OCCN(C)C)nc2n1 [Compound 371, (R)-N-(1-(3-(difluoromethyl)-2-fluorophenyl)ethyl)-7-(2-(dimethylamino)ethoxy)-2-methyl-6-(4-methylpiperazin-1-yl)pyrido[2,3-d] pyrimidin-4-amine] | < 100 | < 50
Cc1nc(N[C@H](C)c2cccc(C(F)F)c2F)c2cc(S(=O)(=O)C3CCN(C)CC3)c(C)nc2n1 [Compound 141, (R)-N-(1-(3-(difluoromethyl)-2-fluorophenyl)ethyl)-2,7-dimethyl-6-((1-methylpiperidin-4-yl)sulfonyl)pyrido[2,3-d]pyrimidin-4-amine] | < 100 | 
COc1nc2nc(OCC3CCOCC3)nc(N[C@H](C)c3cccc(C(F)F)c3F)c2cc1C1(C#N)CC1 [Compound 275, (R)-1-(4-((1-(3-(difluoromethyl)-2-fluorophenyl)ethyl)amino)-7-methoxy-2-((tetrahydro-2H-pyran-4-yl)methoxy)pyrido[2,3-d]pyrimidin-6-yl)cyclopropane-1-carbonitrile] | 100 to 1000 | 
COc1nc2nc(C)nc(N[C@H](C)c3cc(F)cc(C(F)F)c3F)c2cc1C1CCS(=O)(=O)CC1 [Compound 144, (R)-4-(4-((1-(3-(difluoromethyl)-2,5-difluorophenyl)ethyl)amino)-7-methoxy-2-methylpyrido[2,3-d]pyrimidin-6-yl)tetrahydro-2H-thiopyran 1,1-dioxide] | 100 to 1000 | 
COc1nc2ncnc(N[C@H](C)c3cccc(C(F)(F)F)c3F)c2cc1C1(C#N)CCN(C(C)C)CC1 [Compound 280, (R)-4-(4-((1-(2-fluoro-3-(trifluoromethyl)phenyl)ethyl)amino)-7-methoxypyrido[2,3-d]pyrimidin-6-yl)-1-isopropylpiperidine-4-carbonitrile] | 100 to 1000 | 
COc1nc2nc(C)nc(N[C@H](C)c3cccc(C(F)(F)F)c3F)c2cc1N1CCN(C(=O)C2CN(C)CCO2)CC1 (stereo partly drawn) [Compound 311, (4-(4-(((R)-1-(2-fluoro-3-(trifluoromethyl)phenyl)ethyl)amino)-7-methoxy-2-methylpyrido[2,3-d]pyrimidin-6-yl)piperazin-1-yl)(4-methylmorpholin-2-yl)methanone] | 100 to 1000 | 
COc1nc2nc(C)nc(N[C@H](C)c3cccc(C(F)F)c3F)c2cc1C1CCN(C(=O)NC2CN(C)C2)CC1 [Compound 124, (R)-4-(4-((1-(3-(difluoromethyl)-2-fluorophenyl)ethyl)amino)-7-methoxy-2-methylpyrido[2,3-d]pyrimidin-6-yl)-N-(1-methylazetidin-3-yl)piperidine-1-carboxamide] | < 100 | < 50
